Results: ChEMBL document CHEMBL1909046, “DrugMatrix in vitro pharmacology data”

Tests used:
[1] = target: T1, 5-hydroxytryptamine receptor 2C (Homo sapiens, UniProt P28335); assay: DRUGMATRIX: Serotonin (5-Hydroxytryptamine) 5-HT2C radioligand binding (ligand: [3H] Mesulergine); type: cell membranes, CHO-K1, Membrane; details: Not Active = under 50% inhibition at 10 µM; for Ki: read-out: Ki
T1 sequence (P28335 whole entry): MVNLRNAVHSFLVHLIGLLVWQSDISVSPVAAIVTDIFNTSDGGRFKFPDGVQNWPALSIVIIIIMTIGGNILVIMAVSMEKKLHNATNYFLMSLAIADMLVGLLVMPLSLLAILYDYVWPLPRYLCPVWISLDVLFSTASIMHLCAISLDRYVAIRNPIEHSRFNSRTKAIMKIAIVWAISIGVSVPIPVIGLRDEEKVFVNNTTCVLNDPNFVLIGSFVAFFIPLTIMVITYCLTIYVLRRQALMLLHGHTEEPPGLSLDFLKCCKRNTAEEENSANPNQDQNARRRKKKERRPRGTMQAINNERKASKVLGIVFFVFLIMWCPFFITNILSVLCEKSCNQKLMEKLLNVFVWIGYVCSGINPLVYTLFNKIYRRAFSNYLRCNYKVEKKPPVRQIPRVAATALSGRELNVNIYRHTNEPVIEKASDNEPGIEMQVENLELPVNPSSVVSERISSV

[2] = target: T2, Muscarinic acetylcholine receptor M2 (Homo sapiens, UniProt P08172); type: cell membranes, CHO-K1, Membrane; also: in other assays of this panel Not Active means under 50% inhibition at 10 µM
T2 sequence (P08172 whole entry): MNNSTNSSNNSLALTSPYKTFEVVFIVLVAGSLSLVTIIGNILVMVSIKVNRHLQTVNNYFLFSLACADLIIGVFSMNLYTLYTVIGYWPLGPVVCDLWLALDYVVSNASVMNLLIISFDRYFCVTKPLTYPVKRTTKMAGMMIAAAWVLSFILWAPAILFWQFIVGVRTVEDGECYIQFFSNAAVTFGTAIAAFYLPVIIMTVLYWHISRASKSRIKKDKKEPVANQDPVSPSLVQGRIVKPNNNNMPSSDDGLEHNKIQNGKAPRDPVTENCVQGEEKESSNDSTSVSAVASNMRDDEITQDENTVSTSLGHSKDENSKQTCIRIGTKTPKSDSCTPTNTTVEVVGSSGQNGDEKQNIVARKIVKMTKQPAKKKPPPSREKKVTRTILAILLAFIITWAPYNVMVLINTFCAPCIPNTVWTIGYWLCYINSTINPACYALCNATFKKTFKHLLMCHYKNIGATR

[3] = target: Beta-3 adrenergic receptor (Homo sapiens, UniProt P13945); assay: DRUGMATRIX: Adrenergic beta3 radioligand binding (ligand: [125I] Cyanopindolol); type: cell membranes, HEK293, Membrane; details: Not Active = under 50% inhibition at 10 µM
[4] = DRUGMATRIX: Purinergic P2X radioligand binding (ligand: [3H] alpha, beta-Methylene-ATP); type: cell membranes, Oryctolagus cuniculus, New Zealand albino, Urinary bladder, Membrane; details: Not Active = under 50% inhibition at 10 µM
[5] = target: C-C chemokine receptor type 5 (Homo sapiens, UniProt P51681); type: cell membranes, Membrane; details: hek293; also: in other assays of this panel Not Active means under 50% inhibition at 10 µM
[6] = target: T3, Amine oxidase [flavin-containing] A (Homo sapiens, UniProt P21397); assay: DRUGMATRIX: Monoamine Oxidase MAO-A enzyme inhibition (substrate: Kynuramine); design: species or system BTI-TN-5B1-4; details: bti-tn-5b1-4; Not Active = under 50% inhibition at 10 µM
T3 sequence (P21397 whole entry): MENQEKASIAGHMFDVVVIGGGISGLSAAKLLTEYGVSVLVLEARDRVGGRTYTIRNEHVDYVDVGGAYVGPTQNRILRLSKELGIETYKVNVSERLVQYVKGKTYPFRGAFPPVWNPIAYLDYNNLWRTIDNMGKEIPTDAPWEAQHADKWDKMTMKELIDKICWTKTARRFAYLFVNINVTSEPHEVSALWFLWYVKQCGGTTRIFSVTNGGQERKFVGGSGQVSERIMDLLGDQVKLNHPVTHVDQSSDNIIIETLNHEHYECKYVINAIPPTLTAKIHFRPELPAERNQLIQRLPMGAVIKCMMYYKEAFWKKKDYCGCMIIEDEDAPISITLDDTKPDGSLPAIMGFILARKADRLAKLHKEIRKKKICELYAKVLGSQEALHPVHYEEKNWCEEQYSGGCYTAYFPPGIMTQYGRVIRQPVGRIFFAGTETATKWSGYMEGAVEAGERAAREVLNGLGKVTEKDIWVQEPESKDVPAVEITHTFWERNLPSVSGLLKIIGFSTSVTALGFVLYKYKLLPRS

Cytochrome P450 2C9 = Cytochrome P450 2C9 (Homo sapiens, UniProt P11712); details: bti-tn-5b1-4; also: in other assays of this panel Not Active means under 50% inhibition at 10 µM
Cytochrome P450 2C9, sequence (P11712 whole entry): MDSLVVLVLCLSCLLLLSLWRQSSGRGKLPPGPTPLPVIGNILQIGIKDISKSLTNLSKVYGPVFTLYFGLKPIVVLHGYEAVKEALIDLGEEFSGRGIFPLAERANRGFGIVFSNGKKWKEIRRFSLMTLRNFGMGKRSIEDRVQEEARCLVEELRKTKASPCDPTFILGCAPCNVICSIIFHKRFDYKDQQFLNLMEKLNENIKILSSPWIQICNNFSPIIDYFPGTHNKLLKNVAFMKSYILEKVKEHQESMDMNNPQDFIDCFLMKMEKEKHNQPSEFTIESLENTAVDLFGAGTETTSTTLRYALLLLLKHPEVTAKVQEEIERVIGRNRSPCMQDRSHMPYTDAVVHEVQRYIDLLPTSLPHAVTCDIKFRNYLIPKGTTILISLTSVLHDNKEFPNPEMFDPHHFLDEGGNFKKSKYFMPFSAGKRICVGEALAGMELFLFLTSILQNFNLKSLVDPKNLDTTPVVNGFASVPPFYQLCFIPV

Beta-3 adrenergic receptor, sequence (P13945 whole entry): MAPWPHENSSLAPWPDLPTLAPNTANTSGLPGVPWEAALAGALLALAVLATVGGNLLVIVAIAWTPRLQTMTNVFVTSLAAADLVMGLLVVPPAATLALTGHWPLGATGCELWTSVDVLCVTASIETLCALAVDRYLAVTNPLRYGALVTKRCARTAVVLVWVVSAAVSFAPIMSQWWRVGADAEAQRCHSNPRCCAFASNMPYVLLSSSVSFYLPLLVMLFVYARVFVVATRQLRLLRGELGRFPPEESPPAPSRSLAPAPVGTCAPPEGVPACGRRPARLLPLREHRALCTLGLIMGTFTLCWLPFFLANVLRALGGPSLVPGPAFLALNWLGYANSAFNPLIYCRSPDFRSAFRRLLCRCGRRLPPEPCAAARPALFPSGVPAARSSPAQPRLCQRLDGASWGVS
C-C chemokine receptor type 5, sequence (P51681 whole entry): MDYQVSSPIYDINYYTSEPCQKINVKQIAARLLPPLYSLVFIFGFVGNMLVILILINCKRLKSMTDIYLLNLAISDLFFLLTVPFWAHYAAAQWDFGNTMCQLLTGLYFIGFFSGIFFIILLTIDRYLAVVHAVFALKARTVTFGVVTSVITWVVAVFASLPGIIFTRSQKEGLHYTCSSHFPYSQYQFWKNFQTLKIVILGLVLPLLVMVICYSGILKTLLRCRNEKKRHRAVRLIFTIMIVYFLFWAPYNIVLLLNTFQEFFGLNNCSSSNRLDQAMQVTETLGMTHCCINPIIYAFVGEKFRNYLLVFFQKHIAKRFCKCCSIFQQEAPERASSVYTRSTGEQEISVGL

SMILES | IC50 ([1]; cho-k1) | IC50 ([2]; cho-k1) | IC50 ([3]; hek293) | IC50 [4] | Ki [4] | IC50 [5] | IC50 [6] | IC50 ([1]; read-out: IC50) | Ki [1] | IC50 ([3]; read-out: IC50) | Ki ([3]; read-out: Ki) | IC50 (Cytochrome P450 2C9) | Ki (Cytochrome P450 2C9) | IC50 ([2]; read-out: IC50) | Ki ([2]; read-out: Ki)
CC(C)(Oc1ccc(Cl)cc1)C(=O)O [CLOFIBRIC ACID] | Not Active | Not Active | Not Active | Not Active | Not Active | Not Active | Not Active | – | – | – | – | – | – | – | –
Cc1cc(C(C#N)c2ccc(Cl)cc2)c(Cl)cc1NC(=O)c1cc(I)cc(I)c1O (stereo not drawn) [CLOSANTEL] | Not Active | Not Active | Not Active | Not Active | Not Active | Not Active | Not Active | – | – | – | – | – | – | – | –
Cc1onc(-c2ccccc2Cl)c1C(=O)N[C@@H]1C(=O)N2[C@@H]1SC(C)(C)[C@@H]2C(=O)O [CLOXACILLIN] | Not Active | Not Active | Not Active | Not Active | Not Active | Not Active | Not Active | – | – | – | – | – | – | – | –
O=c1oc2ccccc2c(O)c1Cc1c(O)c2ccccc2oc1=O [DICUMAROL] | Not Active | Not Active | Not Active | Not Active | Not Active | Not Active | Not Active | – | – | – | – | – | – | – | –
CC(C)[C@@]1(NC(=O)[C@@H]2C[C@@H]3c4cccc5[nH]cc(c45)C[C@H]3N(C)C2)O[C@@]2(O)[C@@H]3CCCN3C(=O)[C@H](Cc3ccccc3)N2C1=O.CS(=O)(=O)O [DIHYDROERGOCRISTINE MESYLATE] | – | Not Active | – | Not Active | Not Active | Not Active | Not Active | 239 nM | 125 nM | 3310 nM | 2480 nM | – | – | – | –
COc1cc2nc(N3CCN(C(=O)C4COc5ccccc5O4)CC3)nc(N)c2cc1OC (stereo not drawn) [DOXAZOSIN] | – | Not Active | Not Active | Not Active | Not Active | Not Active | Not Active | – | – | – | – | Not Active | Not Active | – | –
C[C@]12CC[C@@H]3c4ccc(O)cc4CC[C@H]3[C@@H]1CCC2=O [ESTRONE] | Not Active | Not Active | Not Active | Not Active | Not Active | Not Active | Not Active | – | – | – | – | – | – | – | –
N=C(N)NCCN1CCCCCCC1 [GUANETHIDINE] | Not Active | Not Active | Not Active | Not Active | Not Active | Not Active | Not Active | – | – | – | – | – | – | – | –
CCCCc1nc(Cl)c(CO)n1Cc1ccc(-c2ccccc2-c2nnn[nH]2)cc1 [LOSARTAN] | Not Active | Not Active | Not Active | Not Active | Not Active | Not Active | Not Active | – | – | – | – | – | – | – | –
CC1(C)S[C@@H]2[C@H](NC(=O)Cc3ccccc3)C(=O)N2[C@H]1C(=O)O [PENICILLIN G] | Not Active | Not Active | Not Active | Not Active | Not Active | Not Active | Not Active | – | – | – | – | – | – | – | –
CCCN1C[C@H](CSC)C[C@@H]2c3cccc4[nH]cc(c34)C[C@H]21 [PERGOLIDE] | – | Not Active | Not Active | Not Active | Not Active | Not Active | Not Active | – | – | – | – | Not Active | Not Active | – | –
Cc1ccc(N(CC2=NCCN2)c2cccc(O)c2)cc1 [PHENTOLAMINE] | – | Not Active | Not Active | Not Active | Not Active | Not Active | Not Active | – | – | – | – | Not Active | Not Active | – | –
CN(C)CCCN1c2ccccc2Sc2ccccc21 [PROMAZINE] | – | – | Not Active | Not Active | Not Active | Not Active | Not Active | 99 nM | 52 nM | – | – | – | – | 1090 nM | 387 nM
